From patent US12629363B2, “Prophylaxis and treatment of angioedema” (PHARVARIS GMBH, priority 2020, dated 2026)
≈ marks a conversion by molar mass, not a printed value.

Key:
[1] = in vivo; cited from earlier work
mouse B2 receptor = biological target: T1, mouse B2 receptor (Mus musculus, UniProt P32299); experiment: Antagonist potency in cells expressing mouse B2 receptor; type: cell-based; conditions: mouse B2 receptor
T1 construct: expressed in transfected cells
T1 sequence (P32299 1-392): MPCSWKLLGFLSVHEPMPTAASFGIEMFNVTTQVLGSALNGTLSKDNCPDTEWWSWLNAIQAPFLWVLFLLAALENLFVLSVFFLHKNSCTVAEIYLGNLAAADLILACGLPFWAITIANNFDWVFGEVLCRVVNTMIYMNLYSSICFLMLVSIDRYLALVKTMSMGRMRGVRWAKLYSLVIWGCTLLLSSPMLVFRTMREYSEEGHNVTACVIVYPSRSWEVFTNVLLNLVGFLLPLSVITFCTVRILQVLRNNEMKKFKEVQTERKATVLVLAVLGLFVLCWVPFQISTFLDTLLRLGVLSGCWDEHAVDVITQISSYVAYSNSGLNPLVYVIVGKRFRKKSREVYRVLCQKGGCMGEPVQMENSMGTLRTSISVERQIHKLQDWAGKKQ
Text: (§1) The bradykinin B2 receptor is well known for its species selective pharmacology (Paquet et al., Br. J. Pharmacol. (126), 1083-1090, 1999 (DOI: 10.1038/sj.bjp.0702403); Burgess et al., Br. J. Pharmacol. (129), 77-86, 2000 (DOI: 10.1038/sj.bjp.0703012)). […] Pharmacol. 11:916; DOI: 10.3389/fphar.2020.00916.

BK B2 receptor = biological target: T2, BK B2 receptor (Homo sapiens, UniProt P30411); conditions: cited from earlier work
T2 sequence (P30411 1-391): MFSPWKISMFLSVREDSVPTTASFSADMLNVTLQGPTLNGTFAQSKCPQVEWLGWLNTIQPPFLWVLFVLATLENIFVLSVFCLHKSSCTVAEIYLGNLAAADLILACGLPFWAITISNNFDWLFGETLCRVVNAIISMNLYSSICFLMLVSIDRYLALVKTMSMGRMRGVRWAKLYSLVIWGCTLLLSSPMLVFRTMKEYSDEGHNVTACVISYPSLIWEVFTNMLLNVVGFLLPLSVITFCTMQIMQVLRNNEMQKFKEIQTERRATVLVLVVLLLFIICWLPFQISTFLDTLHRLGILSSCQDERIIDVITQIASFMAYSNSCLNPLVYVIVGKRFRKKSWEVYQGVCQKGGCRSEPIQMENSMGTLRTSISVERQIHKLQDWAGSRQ

acute HAE attacks = conditions: cited from earlier work
rat B2 receptor = biological target: T3, rat B2 receptor (Rattus norvegicus, UniProt P25023); experiment: Antagonist potency in cells expressing rat B2 receptor; type: cell-based; conditions: rat B2 receptor
T3 construct: expressed in transfected cells
T3 sequence (P25023 1-396): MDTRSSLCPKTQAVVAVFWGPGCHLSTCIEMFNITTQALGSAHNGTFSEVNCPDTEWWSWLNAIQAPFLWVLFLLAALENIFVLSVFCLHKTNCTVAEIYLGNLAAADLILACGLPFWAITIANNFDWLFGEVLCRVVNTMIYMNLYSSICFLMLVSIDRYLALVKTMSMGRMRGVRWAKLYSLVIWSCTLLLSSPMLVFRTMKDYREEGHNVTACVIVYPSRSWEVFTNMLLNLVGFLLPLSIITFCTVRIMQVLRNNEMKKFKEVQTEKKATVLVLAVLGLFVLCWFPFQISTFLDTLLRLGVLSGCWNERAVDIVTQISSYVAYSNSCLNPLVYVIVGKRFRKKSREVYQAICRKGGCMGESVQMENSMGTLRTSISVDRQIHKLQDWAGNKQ
Text: as §1

dog B2 receptor = biological target: T4, dog B2 receptor (Canis lupus familiaris, UniProt Q9BDQ4); experiment: Antagonist potency in cells expressing dog B2 receptor; type: cell-based; conditions: dog B2 receptor
T4 construct: expressed in transfected cells
T4 sequence (Q9BDQ4 1-392): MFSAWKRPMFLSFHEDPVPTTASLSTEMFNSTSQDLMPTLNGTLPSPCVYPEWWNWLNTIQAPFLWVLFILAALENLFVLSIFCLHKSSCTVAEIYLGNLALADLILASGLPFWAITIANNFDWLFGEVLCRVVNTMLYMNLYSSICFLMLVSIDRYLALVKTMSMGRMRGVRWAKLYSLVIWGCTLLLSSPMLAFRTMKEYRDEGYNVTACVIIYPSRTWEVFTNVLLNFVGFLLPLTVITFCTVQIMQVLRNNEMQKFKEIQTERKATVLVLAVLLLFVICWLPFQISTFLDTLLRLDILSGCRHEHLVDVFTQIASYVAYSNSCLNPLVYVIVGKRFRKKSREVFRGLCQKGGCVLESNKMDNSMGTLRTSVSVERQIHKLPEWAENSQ
Text: as §1

[2] = biological target: T5, cynomolgus monkey B2 receptor (Macaca fascicularis, UniProt A0A7N9CWN6); experiment: Antagonist potency in cells expressing cynomolgus monkey B2 receptor; type: cell-based; conditions: read-out: Kb value to antagonize BK activation
T5 sequence (A0A7N9CWN6 1-391): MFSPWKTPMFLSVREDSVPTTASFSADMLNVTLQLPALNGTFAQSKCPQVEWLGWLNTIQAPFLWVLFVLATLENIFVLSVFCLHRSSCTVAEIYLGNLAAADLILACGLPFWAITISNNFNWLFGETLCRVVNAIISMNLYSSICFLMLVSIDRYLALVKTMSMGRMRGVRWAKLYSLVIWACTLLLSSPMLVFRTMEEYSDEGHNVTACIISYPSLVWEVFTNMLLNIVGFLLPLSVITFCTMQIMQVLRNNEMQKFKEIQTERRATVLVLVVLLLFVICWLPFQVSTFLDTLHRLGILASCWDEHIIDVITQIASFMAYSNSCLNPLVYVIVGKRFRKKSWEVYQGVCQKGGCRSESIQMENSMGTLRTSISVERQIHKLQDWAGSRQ
Text: as §1

[3] = Drug-drug interaction trial with itraconazole, PK (Example 5)
Method: Thirteen healthy subjects were enrolled and completed the study.
On Days 4 to 8, subjects received once daily oral doses of 200 mg itraconazole one hour before start of a standard meal.
Trough plasma concentrations of itraconazole were determined by taking predose plasma samples on Days 4-7, to document exposure to itraconazole.

NC(N)=NCCC[C@@H](N)C(=O)N[C@@H](CCCN=C(N)N)C(=O)N1CCC[C@H]1C(=O)N1C[C@H](O)C[C@H]1C(=O)NCC(=O)N[C@@H](Cc1cccs1)C(=O)N[C@@H](CO)C(=O)N1Cc2ccccc2C[C@@H]1C(=O)N1[C@H](C(=O)N[C@@H](CCCN=C(N)N)C(=O)O)C[C@@H]2CCCC[C@@H]21 [icatibant]
half-life [1]: 1.4 h
Kb (mouse B2 receptor): 4.4 nM
Time plasma level above EC85 at a 75% confidence level (BK B2 receptor; in vivo, sc): 5.5 h
Time plasma level above EC85 at a 75% confidence level, DBP (BK B2 receptor; in vivo, sc): 5.5 h
Time plasma level above EC85 at a 75% confidence level, MAP (BK B2 receptor; in vivo, sc): 5.5 h
intrinsic PD potency at the K B2 receptor (BK B2 receptor; in vivo): 8.9 nM
time plasma concentration above EC85 (85% effective) at 50% probability (BK B2 receptor; in vivo): 5.5 h
EC85 (published, BK challenge) (BK B2 receptor; plasma concentration, FDA Clinical Pharmacology Review Firazyr): 0.0538 µg/mL (≈ 0.0412 µM)
time after which therapeutic response to an acute HAE attack wanes (acute HAE attacks; human, in vivo): approximately 6 hours
onset of relief in acute HAE attacks (acute HAE attacks; placebo 19.8 h, Lumry et al. 2011): 2.0 h
Kb (rat B2 receptor): 5.6 nM
Kb (dog B2 receptor): 30.7 nM
Kb [2]: 4.06 nM

CCC(C)n1ncn(-c2ccc(N3CCN(c4ccc(OCC5COC(Cn6cncn6)(c6ccc(Cl)cc6Cl)O5)cc4)CC3)cc2)c1=O (stereo not drawn) [itraconazole]
mean predose plasma concentration (Ctrough) ([3]; Day 4, itraconazole 200 mg dosing): 386 ± 82.2 ng/mL
mean predose plasma concentration (Ctrough) ([3]; Day 7, itraconazole 200 mg dosing): 597 ± 178 ng/mL
